From US6440989B2, “Phenyl-substituted tricyclic inhibitors of farnesyl-protein transferase” (Schering Corporation, priority 1997, dated 2002)

What follows are molecules tested against T1, partially purified rat brain farnesyl protein transferase (FPT) (Rattus norvegicus, UniProt Q02293+Q04631) (assay: In vitro enzyme assay: inhibition of Ras-CVLS farnesylation by farnesyl protein transferase).
T1 construct: partially purified rat brain farnesyl protein transferase (FPT); from tissue; host or cells: rat brain
Type: biochemical
Experimental: 1. In vitro enzyme assays: FPT IC50 (inhibition of farnesyl protein transferase, in vitro enzyme assay) are determined by the methods disclosed in WO/10515 or WO 95110516.
Molecule `Cc1cc(Br)c2c(c1)CCc1cc(Br)cnc1C2C1CCN(C(=O)Cc2cc[n+]([O-])cc2)CC1` (single isomer, unassigned; (-)) [Example 34, (−) 4-(3-Bromo-6,11-dihydro-10-bromo-8-methyl-5H-benzo[5,6]cyclohepta[1,2-b]pyridin-11-yl)-1-(4-pyridinylacetyl)piperidine N1-Oxide] has an IC50 of over 16 nM. `Cc1cc(Br)c2c(c1)CCc1cc(Br)cnc1C2(O)C1CCN(C(=O)Cc2cc[n+]([O-])cc2)CC1` (single isomer, unassigned; (-)) [Example 36, (−) 4-(3-Bromo-6,11-dihydro-11-hydroxy-10-bromo-8-methyl-5H-benzo[5,6]cyclohepta[1,2-b]pyridin-11-yl)-1-(4-pyridinylacetyl)piperidine N1-Oxide] was tested, and the IC50 was 5.4 nM. With `COc1cc2c(c(OC)c1)C(N1CCN(C(=O)Cc3cc[n+]([O-])cc3)CC1)c1ncc(Br)cc1CC2` (stereo not drawn) [Example 1, 1-(3-Bromo-6,11-dihydro-8,10-dimethoxy-5H-benzo[5,6]cyclohepta[1,2-b]pyridin-11-yl)-4-(4-pyridinylacetyl)piperazine N4-oxide] the IC50 was 67 nM. Molecule `COc1cc(C)cc2c1C(C1CCN(C(=O)Cc3cc[n+]([O-])cc3)CC1)c1ncc(C)cc1CC2` (stereo not drawn) [Example 2, 4-(6,11-dihydro-10-methoxy-3,8-dimethyl-5H-benzo[5,6]cyclohepta[1,2-b]pyridin-11-yl)-1-(4-pyridinylacetyl)piperidine N1-15 oxide] has an IC50 of 34 nM. For `COc1cc(C)c(Cl)c2c1C(=C1CCN(C(=O)Cc3cc[n+]([O-])cc3)CC1)c1ncccc1CC2` [Example 5, (+,−)-4-(7-Chloro-5,6-dihydro-8-methyl-10-methoxy-11H-benzo[5,6]cyclohepta[1,2-b]pyridin-11-ylidene)-1-(4-pyridinylacetyl)piperidine N1-oxide], the IC50 was over 200 nM. With `Cc1cc(O)c2c(c1)CCc1cc(Br)cnc1C2=C1CCN(C(=O)Cc2cc[n+]([O-])cc2)CC1` [Example 6, (+,−)-4-(3-Bromo-10-hydroxy-8-methyl--5,6-dihydro-11H-benzo[5,6]cyclohepta[1,2-b]pyridin-11-ylidene)-1-(4-pyridinylacetyl)piperidine N1-oxide] the IC50 was 45 nM. Molecule `COc1cc(C)cc2c1C(=C1CCN(C(=O)Cc3cc[n+]([O-])cc3)CC1)c1ncc(C)cc1CC2` [Example 7, 4-(5,6-dihydro-10-methoxy-3,8-dimethyl-11H-benzo[5,6]cyclohepta[1,2-b]pyridin-11-ylidene)-1-(4-pyridinylacetyl)piperidine N1-oxide] has an IC50 of 60 nM. For `COc1cc(C)cc2c1C(=C1CCN(C(=O)Cc3cc[n+]([O-])cc3)CC1)c1ncc(Br)cc1CC2` [Example 8, (+,−)-4-(3-bromo-10-methoxy-8-methyl-5,6-dihydro-11H-benzo[5,6]cyclohepta[1,2-b]pyridin-11-ylidene)-1-(4-pyridinylacetyl)piperidine N1-oxide], the IC50 was 30 nM. In the case of `C=Cc1cnc2c(c1)CCc1cc(C)cc(OC)c1C2C1CCN(C(=O)Cc2cc[n+]([O-])cc2)CC1` (stereo not drawn) [Example 27, 4-(3-Ethenyl-6,11-dihydro-10-methoxy-8-methyl-5H-benzo[5,6]cyclohepta[1,2-b]pyridin-11-yl)-1-(4-pyridinylacetyl)piperidine N1-Oxide], the IC50 is reported as 59 nM. `C=Cc1cnc2c(c1)CCc1cc(C)cc(OC)c1C2C1CCN(S(C)(=O)=O)CC1` (stereo not drawn) [Example 28, 4-(3-Ethenyl-6,11-dihydro-10-methoxy-8-methyl-5H-benzo[5,6]cyclohepta[1,2-b]pyridin-11-yl)-1-(methylsulfonyl)piperidine] was tested, and the IC50 was 132 nM. In the case of `CCc1cnc2c(c1)CCc1cc(C)cc(OC)c1C2C1CCN(C(=O)Cc2cc[n+]([O-])cc2)CC1` (stereo not drawn) [Example 29, 4-(3-Ethyl-6,11-dihydro-10-methoxy-8-methyl-5H-5 benzo[5,6]cyclohepta[1,2-b]pyridin-11-yl)-1-(4-pyridinylacetyl)piperidine, N1-Oxide], the IC50 is reported as 74 nM. Work on `Cc1cc(Br)c2c(c1)CCc1cc(Br)cnc1C2=C1CCN(C(=O)Cc2cc[n+]([O-])cc2)CC1` [Example 37, -(3-Bromo-5,6-dihydro-10-bromo-8-methyl-11H-benzo[5,6]cyclohepta[1,2-b]pyridin-11-ylidene)-1-(4-pyridinylacetyl)piperidine N1-Oxide] yielded an IC50 of 5.4 nM.
